Ends that are not written are not given here.
Experiments:
293T cells = assay type: cell-based, human; settings: for Effect of other salts on enhancing TAN-mediated transfection: salt in place of CaCl2
Protocol: 293T (human embryonic kidney) cells were grown in Dulbecco's modified Eagle's medium (Life Technologies, Rockville, Md.) supplemented with 10% FBS, 100 units/ml penicillin, and 100 μg/ml of streptomycin in a 37° C. CO2 incubator. Cells were regularly passed to maintain growth. Twenty-four hours before transfection, cells were trypsinized and plated on 96-well plates (100 μl/well) in the above medium without the antibiotics. Ten μl of fraction 2 was added to 293T cells at 15% confluency in serum-containing medium. Fluorescence microscopy was performed at 12 hours, after changing medium and washing cells.
TAN (SEQ ID NO:3) at 0.1 to 5 μg per 96-well transfection was mixed with 0.1 μg plasmid pEGFP-N1 (BD ClonTech) for 5 min, diluted in 40 μl DMEM, then added to cells. Fluorescence microscopy was performed at different time points to observe the expression of GFP as the indication of transfection event. Note that by using GFP as reporter, the total transfection efficiency was underestimated due to certain percentage of cells would not express the GFP to levels high enough for detection.
Different concentrations of TAN (SEQ ID NO:3) and CaCl2 were tested in combination for transfection. TAT (SEQ ID NO:1) and another peptide, HT 31 (a widely used PKA-anchor interaction interruption peptide) were included as controls. Generally, experiments were performed similarly as in the above examples except that peptide was added to DNA first, followed by addition of CaCl2.

[1] = test system: approximately 300 bp PCR product linear dsDNA; experiment: Band-shift assay with short linear dsDNA (siRNA-expressing PCR product); assay type: binding; settings: 30 min reaction, 2% gel
Protocol: In order to examine whether TAN could directly interact with the transfected plasmid DNA as predicted by the transfection results, band-shift assays were performed. Different amount of TAN (SEQ ID NO:3) dissolved in H2O was mixed with 0.5 μg of plasmid with or without 15 mM CaCl2, incubated for 5 min, followed by addition of 2 μl of DNA loading dye (30% glycerol), and loaded to 0.7% agarose gel. The EB-containing gel was run for about 45 min at 120 volts before the picture taken under UV lights.
The ability of TAN (SEQ ID NO:3) to bind short linear dsDNA also was examined. The DNA tested was an approximately 300 bp PCR product that is used to express small interfering RNAs (siRNAs). The experiments were done similarly to those described in Example 6, except that the reactions were allowed to proceed to 30 min and the gel was 2%. […] This difference may be due to a difference in the relative amount of DNA in each type of complex or to the structural constrains of linear versus circular DNA. […] Because these cassettes express siRNAs under the control of Pol III promoter as apposed to Pol II in GFP expression unit, it is therefore likely that peptide assisted transfection (PAT) is independent of promoter used, as expected.

[2] = test system: monkey kidney cell Vero-E6; experiment: Peptide as additive to TransIt-Oligo reagent transfection of pEFGP-N1; assay type: cell-based; settings: 0.1 μg plasmid, 96-well, about 30% confluency, increasing amount of peptide

## [Cl-].[Cl-].[Mg+2] [MgCl2]
293T cells
  Effect of other salts on enhancing TAN-mediated transfection: showed no effect

## [Cl-].[Na+] [NaCl]
293T cells
  Effect of other salts on enhancing TAN-mediated transfection: showed no effect

## YGRKKRRQRRR [TAT]
293T cells; control peptides with CaCl2 and DNA
  Effect of control peptide together with CaCl2: caused cells to lyse
[1]
  Behaviour at slightly increased concentration: quickly precipitated DNA
  Binding to linear dsDNA (band shift): did not bind at the lower concentrations
[2]
  Enhancement of TransIt-Oligo transfection by peptide: did not show such enhancement

## YGRKKRRQRRRGQRNPNKKWS [TAN]
293T cells; peptide/Ca++ transfection
  Toxicity to treated cells (growth arrest, cell death): did not show arrest of growth or cell death
